In ChEMBL document CHEMBL3885881, “DrugMatrix”:

Species: Rattus norvegicus
Assay: DrugMatrix - Regimen: Daily Repeat
Format: toxicity, organism-based, Sprague-Dawley
Design: regimen Daily Repeat, gender Male, age 6-8 weeks
Settings: in vivo, po, route oral GAVAGE, […]; for ABSOLUTE BASOPHIL / ABSOLUTE EOSINOPHIL / ABSOLUTE LYMPHOCYTE / ABSOLUTE MONOCYTE / ABSOLUTE SEGMENTED NEUTROPHIL / BASOPHIL / EOSINOPHIL / ERYTHROCYTE COUNT / HEMATOCRIT / HEMOGLOBIN / LEUKOCYTE COUNT / LYMPHOCYTE / MEAN CORPUSCULAR HEMOGLOBIN / MEAN CORPUSCULAR HEMOGLOBIN CONCENTRATION / MEAN CORPUSCULAR VOLUME / MONOCYTE / NEUTROPHIL / NUCLEATED RED BLOOD CELLS / PLATELET COUNT: tissue Blood; for ALANINE AMINOTRANSFERASE / ALBUMIN / ALKALINE PHOSPHATASE / ASPARTATE AMINOTRANSFERASE / BLOOD UREA NITROGEN / CARBON DIOXIDE / CHLORIDE / CHOLESTEROL / CREATINE PHOSPHOKINASE / CREATININE / GLUCOSE / LACTATE DEHYDROGENASE / LIPASE / PHOSPHORUS / POTASSIUM / SODIUM / TOTAL BILIRUBIN / TOTAL PROTEIN / URIC ACID: tissue Plasma
[1] = 280 mg/kg, 120 h, dose level High, time 5 day
[2] = 72 h, dose 2.8 mg/Kg, dose level Low, time 3 day
[3] = 120 h, dose 2.8 mg/Kg, dose level Low, time 5 day

## CC/C(=C(/CC)c1ccc(O)cc1)c1ccc(O)cc1 [DIETHYLSTILBESTROL]
[1]
  ABSOLUTE BASOPHIL: 0 CELLS/uL
  ABSOLUTE EOSINOPHIL: 0 CELLS/uL
  ABSOLUTE LYMPHOCYTE: 5802 CELLS/uL
  ABSOLUTE MONOCYTE: 16.67 CELLS/uL
  ABSOLUTE SEGMENTED NEUTROPHIL: 514.67 CELLS/uL
  BASOPHIL: 0%
  EOSINOPHIL: 0%
  ERYTHROCYTE COUNT: 5.3 x10E6/uL
  HEMATOCRIT: 33.4%
  HEMOGLOBIN: 12.67 G/DL
  LEUKOCYTE COUNT: 6.33 x10E3/uL
  LYMPHOCYTE: 91.33%
  MEAN CORPUSCULAR HEMOGLOBIN: 23.9 pg
  MEAN CORPUSCULAR HEMOGLOBIN CONCENTRATION: 37.97 G/DL
  MEAN CORPUSCULAR VOLUME: 62.97 fL
  MONOCYTE: 0.33%
  NEUTROPHIL: 8.33%
  NUCLEATED RED BLOOD CELLS: 0.33 /100WBC
  PLATELET COUNT: 1806.33 x10E3/uL
  ALANINE AMINOTRANSFERASE: 47.33 u/L
  ALBUMIN: 3.6 G/DL
  ALKALINE PHOSPHATASE: 594.67 u/L
  ASPARTATE AMINOTRANSFERASE: 59 u/L
  BLOOD UREA NITROGEN: 14 mg/dL
  CARBON DIOXIDE: 28.33 mmol/L
  CHLORIDE: 100 MEQ/L
  CHOLESTEROL: 35 mg/dL
  CREATINE PHOSPHOKINASE: 88.33 u/L
  CREATININE: 0.3 mg/dL
  GLUCOSE: 144.67 mg/dL
  LACTATE DEHYDROGENASE: 47.33 u/L
  LIPASE: 9 u/L
  PHOSPHORUS: 9.33 mg/dL
  POTASSIUM: 5.01 MEQ/L
  SODIUM: 147.6 MEQ/L
  TOTAL BILIRUBIN: 0.6 mg/dL
  TOTAL PROTEIN: 6.27 G/DL
  URIC ACID: 0.3 mg/dL
[2]
  ABSOLUTE BASOPHIL: 0 CELLS/uL
  ABSOLUTE EOSINOPHIL: 0 CELLS/uL
  ABSOLUTE LYMPHOCYTE: 8607.33 CELLS/uL
  ABSOLUTE MONOCYTE: 102 CELLS/uL
  ABSOLUTE SEGMENTED NEUTROPHIL: 1057.33 CELLS/uL
  BASOPHIL: 0%
  EOSINOPHIL: 0%
  ERYTHROCYTE COUNT: 5.52 x10E6/uL
  HEMATOCRIT: 33.53%
  HEMOGLOBIN: 13.07 G/DL
  LEUKOCYTE COUNT: 9.77 x10E3/uL
  LYMPHOCYTE: 88%
  MEAN CORPUSCULAR HEMOGLOBIN: 23.73 pg
  MEAN CORPUSCULAR HEMOGLOBIN CONCENTRATION: 39.03 G/DL
  MEAN CORPUSCULAR VOLUME: 60.87 fL
  MONOCYTE: 1%
  NEUTROPHIL: 11%
  NUCLEATED RED BLOOD CELLS: 0 /100WBC
  PLATELET COUNT: 1167 x10E3/uL
  ALANINE AMINOTRANSFERASE: 57.33 u/L
  ALBUMIN: 3.83 G/DL
  ALKALINE PHOSPHATASE: 627.67 u/L
  ASPARTATE AMINOTRANSFERASE: 71 u/L
  BLOOD UREA NITROGEN: 7.67 mg/dL
  CARBON DIOXIDE: 26.67 mmol/L
  CHLORIDE: 105.33 MEQ/L
  CHOLESTEROL: 24.33 mg/dL
  CREATINE PHOSPHOKINASE: 222.33 u/L
  CREATININE: 0.12 mg/dL
  GLUCOSE: 155.33 mg/dL
  LACTATE DEHYDROGENASE: 64 u/L
  LIPASE: 8 u/L
  PHOSPHORUS: 9.27 mg/dL
  POTASSIUM: 5.23 MEQ/L
  SODIUM: 147.13 MEQ/L
  TOTAL BILIRUBIN: 0.13 mg/dL
  TOTAL PROTEIN: 5.6 G/DL
  URIC ACID: 0.6 mg/dL
[3]
  ABSOLUTE BASOPHIL: 0 CELLS/uL
  ABSOLUTE EOSINOPHIL: 46 CELLS/uL
  ABSOLUTE LYMPHOCYTE: 6817.67 CELLS/uL
  ABSOLUTE MONOCYTE: 68 CELLS/uL
  ABSOLUTE SEGMENTED NEUTROPHIL: 335 CELLS/uL
  BASOPHIL: 0%
  EOSINOPHIL: 0.67%
  ERYTHROCYTE COUNT: 5.68 x10E6/uL
  HEMATOCRIT: 36.33%
  HEMOGLOBIN: 13.8 G/DL
  LEUKOCYTE COUNT: 7.27 x10E3/uL
  LYMPHOCYTE: 93.33%
  MEAN CORPUSCULAR HEMOGLOBIN: 24.3 pg
  MEAN CORPUSCULAR HEMOGLOBIN CONCENTRATION: 38.03 G/DL
  MEAN CORPUSCULAR VOLUME: 64 fL
  MONOCYTE: 0.67%
  NEUTROPHIL: 5.33%
  NUCLEATED RED BLOOD CELLS: 0.33 /100WBC
  PLATELET COUNT: 1219.67 x10E3/uL
  ALANINE AMINOTRANSFERASE: 60.67 u/L
  ALBUMIN: 3.7 G/DL
  ALKALINE PHOSPHATASE: 729.67 u/L
  ASPARTATE AMINOTRANSFERASE: 65.67 u/L
  BLOOD UREA NITROGEN: 11.33 mg/dL
  CARBON DIOXIDE: 26.33 mmol/L
  CHLORIDE: 103.33 MEQ/L
  CHOLESTEROL: 19.33 mg/dL
  CREATINE PHOSPHOKINASE: 162.33 u/L
  CREATININE: 0.19 mg/dL
  GLUCOSE: 151.33 mg/dL
  LACTATE DEHYDROGENASE: 62 u/L
  LIPASE: 9.33 u/L
  PHOSPHORUS: 8.9 mg/dL
  POTASSIUM: 4.57 MEQ/L
  SODIUM: 146.9 MEQ/L
  TOTAL BILIRUBIN: 0.13 mg/dL
  TOTAL PROTEIN: 6.03 G/DL
  URIC ACID: 0.5 mg/dL
